Data: patent publication US12162879B2, “Pyridopyrimidine derivative, preparation method therefor and medical use thereof” (Jiangsu Hengrui Medicine Co., Ltd., priority 2018, dated 2024)

How the values were obtained:
hERG potassium channel = hERG potassium channel (Homo sapiens (Human), UniProt Q12809); assay: Blocking effect on hERG potassium current, automatic patch clamp (Patchliner) on HEK293-hERG stable cell line; assay type: cell-based
Method: The blocking effect of the compounds of the present application on hERG potassium current was determined using an automatic patch-clamp on a stable cell line transfected with hERG potassium channels.
The HEK293 cell line was transfected with pCDNA3.1(+) that had constructed the hERG gene. The monoclonal HEK293-hERG stable cell line was screened by adding G418. The HEK293-hERG stable cell line was subcultured at a density of 1:4 in MEM/EBSS medium (10% FBS, 400 μg/mL G418, 1% MEM non-essential amino acid solution (100×), 1% sodium pyruvate solution) and cultured within 48 to 72 hours for the automatic patch clamp experiment. On the day of the experiment, the cells were digested with 0.25% trypsin (life technologies, 12563-029), collected by centrifugation and resuspended with extracellular fluid (140 mM NaCl, 4 mM KCl, 1 mM MgCl2, 2 mM CaCl2, 5 mM MD glucose monohydrate, 10 mM HEPES, pH 7.4, 298 mOsmol) to obtain a cell suspension. The cell suspension was placed on the cell bank of the Patchliner instrument, the Patchliner instrument used a negative pressure controller to apply the cells to the chip (NPC-16), and the negative pressure attracted individual cells to the wells of the chip. When the whole cell mode was formed, the instrument got the hERG current according to the set hERG current-voltage program, and then the instrument automatically perfused the compound from low to high concentration. The currents at each concentration of the compound and the blank control current were analyzed by the HEAK EPC 10 patch clamp amplifier (Nanion), Pathlinersoftware and data analysis software provided by Pathcontrol HTsoftware.

[1] = molecular target: CYP3A4 (midazolam metabolite site) (Homo sapiens (Human), UniProt P08684); assay: Inhibition of enzyme activity of midazolam metabolite site of CYP3A4 in human liver microsome; assay type: in vitro ADME; conditions: midazolam probe substrate, 30 minutes
Method: The effect of the compounds of the present invention on the enzyme activity of midazolam metabolite site of CYP3A4 in human liver microsomes was determined by the following experimental method.
(§1) • 1. Phosphate buffer solution (PBS) (Shanghai Basalmedia Technologies Co., Ltd., B320, similarly hereinafter); • 2. NADPH (Sigma N-1630); • 3. Human liver microsome (Corning Gentest); • 4. ABI QTrap 4000 liquid chromatograph/mass spectrometer (AB Sciex); • 5. Inertsil C8-3 column, 4.6×50 mm, 5 μm (Dikma Technologies Inc., USA); and • 6. CYP probe substrate (15 μM midazolam, SIGMA UC429) and positive control inhibitor (ketoconazole, SIGMA K1003). II. Experimental Procedures
(§2) 100 mM PBS buffer was formulated, which was then used to formulate 2.5 mg/ml human microsome solution and 5 mM NADPH solution. The 5× concentration of the compound working solution was diluted with PBS in gradients (150, 50, 15, 5, 1.5, 0.15, 0.015, 0 μM). The 5× concentration of ketoconazole working solution was diluted with PBS in gradients (150, 50, 15, 5, 1.5, 0.15, 0.015, 0 μM). Midazolam working solution was diluted with PBS to a concentration of 15 μM.
(§3) 20 μl of 2.5 mg/ml microsome solution, 20 μl of 15 μM midazolam working solution, 20 μl of MgCl2 solution and 20 μl of the compound working solution (150, 50, 15, 5, 1.5, 0.15, 0.015, 0 μM, different reaction systems for each concentration) were mixed well. For the positive control group, the compound was replaced with the same concentration of ketoconazole. The mixture together with 5 mM NADPH solution was pre-incubated at 37° C. for 5 minutes. After 5 minutes, 20 μl of NADPH was added to each well, the reaction was initiated, and the plate was incubated for 30 minutes. All the incubated samples were present in duplicate. After 30 minutes, 250 μl of acetonitrile containing internal standard (100 ng/ml camptothecin) was added to all samples, mixed well, shaken at 800 rpm for 10 minutes, and then centrifuged at 3700 rpm for 10 minutes. 80 μl of the supernatant was taken and analyzed by LC-MS/MS.
The data was calculated by Graphpad Prism to obtain the IC50 values of the compounds on the midazolam metabolite site of CYP3A4, which are shown in Table 2.

[2] = molecular target: CYP3A4 (testosterone metabolite site) (Homo sapiens (Human), UniProt P08684); assay: Inhibition of enzyme activity of testosterone metabolite site of CYP3A4 in human liver microsomes; assay type: in vitro ADME; conditions: human liver microsome, testosterone probe substrate, 30 minutes
Method: The effect of the compounds of the present invention on the enzyme activity of testosterone metabolite site of CYP3A4 in human liver microsomes was determined by the following experimental method.
as §1, with “(PBS);” for “(PBS) (Shanghai Basalmedia Technologies Co., Ltd., B320, similarly hereinafter);”, “(testosterone/100 μM,” for “(15 μM midazolam,”, “[…])” for “UC429)”, “Dr. Ehrenstorfer GmbH, C17322500).” for “SIGMA K1003).”
as §2, with “μM). […]” for “μM). Midazolam”, “of 50” for “of 15”
as §3, with “of 50” for “of 15”, “μM testosterone” for “μM midazolam”
The data was calculated by Graphpad Prism to obtain the IC50 values of the compounds on the testosterone metabolite site of CYP3A4, which are shown in Table 4.

Chain of CYP3A4 (testosterone metabolite site) (P08684 whole entry): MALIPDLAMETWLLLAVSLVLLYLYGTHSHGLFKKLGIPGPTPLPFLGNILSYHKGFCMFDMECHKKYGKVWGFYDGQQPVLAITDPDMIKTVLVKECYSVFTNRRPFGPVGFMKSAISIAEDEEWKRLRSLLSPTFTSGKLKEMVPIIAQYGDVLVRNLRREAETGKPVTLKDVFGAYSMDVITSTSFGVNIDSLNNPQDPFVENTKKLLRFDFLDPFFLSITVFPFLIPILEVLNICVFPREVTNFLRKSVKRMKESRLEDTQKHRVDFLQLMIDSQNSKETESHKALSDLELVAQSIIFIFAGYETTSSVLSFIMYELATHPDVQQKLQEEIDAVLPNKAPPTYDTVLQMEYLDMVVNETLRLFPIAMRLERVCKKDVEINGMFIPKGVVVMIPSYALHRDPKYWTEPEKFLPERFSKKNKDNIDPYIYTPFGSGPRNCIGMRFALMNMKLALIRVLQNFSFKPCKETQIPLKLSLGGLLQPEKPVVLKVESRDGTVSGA
Chain of CYP3A4 (midazolam metabolite site) (P08684 whole entry): as above
Chain of hERG potassium channel (Q12809 whole entry): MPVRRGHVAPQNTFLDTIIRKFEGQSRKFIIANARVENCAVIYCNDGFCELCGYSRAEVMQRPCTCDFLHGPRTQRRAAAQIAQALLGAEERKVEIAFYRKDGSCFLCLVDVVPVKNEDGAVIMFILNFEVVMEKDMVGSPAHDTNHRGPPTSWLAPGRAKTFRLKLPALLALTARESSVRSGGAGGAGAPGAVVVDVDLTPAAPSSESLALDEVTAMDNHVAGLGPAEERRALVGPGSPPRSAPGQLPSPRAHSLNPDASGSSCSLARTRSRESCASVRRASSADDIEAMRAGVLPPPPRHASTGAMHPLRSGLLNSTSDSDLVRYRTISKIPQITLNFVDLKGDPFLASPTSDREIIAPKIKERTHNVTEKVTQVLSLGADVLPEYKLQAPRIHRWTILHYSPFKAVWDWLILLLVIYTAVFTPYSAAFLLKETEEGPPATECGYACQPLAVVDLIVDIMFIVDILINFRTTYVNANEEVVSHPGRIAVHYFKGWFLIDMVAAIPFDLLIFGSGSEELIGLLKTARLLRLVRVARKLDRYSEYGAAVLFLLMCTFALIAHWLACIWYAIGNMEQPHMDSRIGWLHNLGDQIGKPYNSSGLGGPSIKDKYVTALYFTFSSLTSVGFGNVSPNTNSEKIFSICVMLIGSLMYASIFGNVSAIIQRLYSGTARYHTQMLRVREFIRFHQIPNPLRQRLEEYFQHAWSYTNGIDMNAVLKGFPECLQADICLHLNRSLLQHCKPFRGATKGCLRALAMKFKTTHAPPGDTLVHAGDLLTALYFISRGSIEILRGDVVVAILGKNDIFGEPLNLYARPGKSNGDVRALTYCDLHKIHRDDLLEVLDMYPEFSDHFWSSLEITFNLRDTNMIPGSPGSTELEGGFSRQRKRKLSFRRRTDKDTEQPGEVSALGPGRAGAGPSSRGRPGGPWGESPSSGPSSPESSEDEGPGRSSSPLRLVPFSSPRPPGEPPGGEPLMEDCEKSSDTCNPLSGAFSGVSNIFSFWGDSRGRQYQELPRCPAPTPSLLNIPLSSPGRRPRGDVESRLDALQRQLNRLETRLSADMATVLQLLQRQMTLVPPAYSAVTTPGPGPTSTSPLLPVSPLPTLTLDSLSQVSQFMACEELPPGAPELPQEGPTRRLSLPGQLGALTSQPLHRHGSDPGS

| Compound | IC50 [1] | IC50 [2] | IC50 (hERG potassium channel) |
| --- | --- | --- | --- |
| CCCC[C@](C)(CO)Nc1nc(N)nc2cc(-c3ccc(CN4CCN(C)CC4)nc3)cnc12 [Example 6, (R)-2-((2-Amino-7-(6-((4-methylpiperazin-1-yl)methyl)pyridin-3-yl)pyrido[3,2-d]pyrimidin-4-yl)amino)-2-methylhexan-1-ol] | > 30 µM | > 30 µM | 26 µM |
| CCCC[C@](C)(CO)Nc1nc(N)nc2cc(-c3cnc(C4CCN(C)CC4)nc3)cnc12 [Example 8, (R)-2-((2-Amino-7-(2-(1-methylpiperidin-4-yl)pyrimidin-5-yl)pyrido[3,2-d]pyrimidin-4-yl)amino)-2-methylhexan-1-ol] | > 30 µM | > 30 µM | > 30 µM |

More lines, main results first:

| IC50 [1] | IC50 [2] | Compound | IC50 (hERG potassium channel) |
| --- | --- | --- | --- |
| 27 µM |  | CCCC[C@](C)(CO)Nc1nc(N)nc2cc(-c3ccc(CN4CCCC4)nc3)cnc12 [Example 2, (R)-2-((2-Amino-7-(6-(pyrrolidin-1-ylmethyl)pyridin-3-yl)pyrido[3,2-d]pyrimidin-4-yl)amino)-2-methylhexan-1-ol] | 7 µM |
| > 30 µM | 16 µM | CCCC[C@](C)(CO)Nc1nc(N)nc2cc(-c3ccc(C4CCN(C)CC4)nc3)cnc12 [Example 4, (R)-2-((2-Amino-7-(6-(1-methylpiperidin-4-yl)pyridin-3-yl)pyrido[3,2-d]pyrimidin-4-yl)amino)-2-methylhexan-1-ol] | 14 µM |
| > 30 µM | 8.3 µM | CCCCC(C)(CO)Nc1nc(N)nc2cc(-c3ccc(CN4CCN(C)CC4)nc3)cnc12 (centres unmarked) [Example 5, 2-((2-Amino-7-(6-((4-methylpiperazin-1-yl)methyl)pyridin-3-yl)pyrido[3,2-d]pyrimidin-4-yl)amino)-2-methylhexan-1-ol] | 17 µM |
